Tests used:
CDK2/Cyclin E1 = CDK2/Cyclin E1 (Homo sapiens, UniProt P24941); assay: CDK2/Cyclin E1 Biochemical Assay (TR-FRET), 0.060 mM ATP; conditions: 0.15 μM Rb (Ser780)-biotin substrate, pH7.0, 60 min preincubation, 120 min reaction, room temperature
Method in brief: (§1)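 IC50 was from a four-parameter logistic fit of the 665/620 nm TR-FRET ratio (Eu anti-pRb Ser780 mAb, streptavidin-XL665). Compound (0-10 μM) was preincubated 60 min with enzyme, then reacted 120 min at room temperature with 0.15 μM biotinylated Rb (Ser780) peptide. ATP was 0.015 mM for CDK1/Cyclin B1 and 0.060 mM for CDK2/Cyclin E1; buffer was HEPES pH7.0.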

CDK1/Cyclin B1 = CDK1/Cyclin B1 (Homo sapiens, UniProt P06493); assay: CDK1/Cyclin B1 Biochemical Assay (TR-FRET), 0.015 mM ATP; conditions: 0.15 μM Rb (Ser780)-biotin substrate, pH7.0, 60 min preincubation, 120 min reaction, room temperature
Method in brief: as §1

Sequence of CDK1/Cyclin B1 (P06493 whole entry): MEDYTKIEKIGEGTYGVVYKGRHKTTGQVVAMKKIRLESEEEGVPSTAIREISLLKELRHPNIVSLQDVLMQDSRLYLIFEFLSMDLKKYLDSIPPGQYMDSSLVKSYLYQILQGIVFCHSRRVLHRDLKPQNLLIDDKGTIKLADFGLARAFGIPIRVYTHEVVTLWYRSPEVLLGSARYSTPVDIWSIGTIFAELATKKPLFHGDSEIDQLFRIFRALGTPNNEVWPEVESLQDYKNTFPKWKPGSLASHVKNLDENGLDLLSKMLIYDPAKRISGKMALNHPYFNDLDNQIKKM
Sequence of CDK1/Cyclin B1 (P14635 whole entry partner): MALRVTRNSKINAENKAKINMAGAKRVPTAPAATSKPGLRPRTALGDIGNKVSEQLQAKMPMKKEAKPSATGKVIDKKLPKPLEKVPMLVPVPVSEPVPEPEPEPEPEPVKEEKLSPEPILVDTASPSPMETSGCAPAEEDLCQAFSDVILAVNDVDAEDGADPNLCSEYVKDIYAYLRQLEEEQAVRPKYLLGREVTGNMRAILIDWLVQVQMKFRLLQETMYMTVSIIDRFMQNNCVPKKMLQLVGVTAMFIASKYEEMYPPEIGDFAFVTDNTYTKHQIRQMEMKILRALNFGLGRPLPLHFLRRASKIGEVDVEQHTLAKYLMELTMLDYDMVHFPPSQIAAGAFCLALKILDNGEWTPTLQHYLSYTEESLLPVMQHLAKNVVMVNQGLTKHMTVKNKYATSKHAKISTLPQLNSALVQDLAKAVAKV

## CC[C@H](C)NC(=O)O[C@H]1CC[C@@H](c2cc(Nc3ccc4c(c3)CCS(=O)(=O)N4)n[nH]2)C1 (relative stereo) [Example 248, cis-3-(3-((2,2-dioxido-3,4-dihydro-1H-benzo[c][1,2]thiazin-6-yl)amino)-1H-pyrazol-5-yl)cyclopentyl((S)-sec-butyl)carbamate]
CDK2/Cyclin E1
  IC50: 2.6 nM
CDK1/Cyclin B1
  IC50: 49 nM

## CCCNC(=O)O[C@H]1CC[C@@H](c2cc(Nc3ccc4c(c3F)CS(=O)(=O)N4CCO)n[nH]2)C1 (single isomer, unassigned) [Example 272b, cis-3-(3-((4-fluoro-1-(2-hydroxyethyl)-2,2-dioxido-1,3-dihydrobenzo[c]isothiazol-5-yl)amino)-1H-pyrazol-5-yl)cyclopentyl propylcarbamate]
CDK2/Cyclin E1
  IC50: 3 nM
CDK1/Cyclin B1
  IC50: 59 nM

## CC(C)(C)NC(=O)O[C@@H]1CC[C@H](c2cc(Nc3cc4c(cc3F)S(=O)(=O)NC4)n[nH]2)C1 (single isomer, unassigned) [Example 395a]
CDK2/Cyclin E1
  IC50: 1.6 nM
CDK1/Cyclin B1
  IC50: 191 nM

## CC1(NC(=O)O[C@H]2CC[C@@H](c3cc(Nc4ccc5c(c4)CCS(=O)(=O)N5)n[nH]3)C2)CC1 (racemic) [Example 249, cis-3-(3-((2,2-dioxido-3,4-dihydro-1H-benzo[c][1,2]thiazin-6-yl)amino)-1H-pyrazol-5-yl)cyclopentyl(1-methylcyclopropyl)carbamate]
CDK2/Cyclin E1
  IC50: 2.1 nM
CDK1/Cyclin B1
  IC50: 29 nM

## [2H]C([2H])([2H])N1Cc2cc(Nc3cc([C@@H]4CC[C@H](OC(=O)NC(C)C)C4)[nH]n3)c(F)cc2S1(=O)=O (relative stereo) [Example 46, cis-3-(3-((6-fluoro-2-(methyl-d3)-1,1-dioxido-2,3-dihydrobenzo[d]isothiazol-5-yl)amino)-1H-pyrazol-5-yl)cyclopentyl isopropylcarbamate]
CDK2/Cyclin E1
  IC50: 230 nM
CDK1/Cyclin B1
  IC50: 4420 nM

## CC(C)NC(=O)O[C@H]1CC[C@@H](c2cc(Nc3ccc4c(c3F)CN(C3CN(C(c5ccccc5)c5ccccc5)C3)S4(=O)=O)n[nH]2)C1 (relative stereo) [Example 94, cis-3-(3-((2-(1-benzhydrylazetidin-3-yl)-4-fluoro-1,1-dioxido-2,3-dihydrobenzo[d]isothiazol-5-yl)amino)-1H-pyrazol-5-yl)cyclopentyl isopropylcarbamate]
CDK2/Cyclin E1
  IC50: 332 nM
CDK1/Cyclin B1
  IC50: > 10000 nM

## [2H]C([2H])([2H])N1c2c(F)cc(Nc3cc([C@@H]4CC[C@H](OC(=O)N[C@@H](C)CC)C4)[nH]n3)cc2CS1(=O)=O (relative stereo) [Example 285, cis-3-(3-((7-fluoro-1-(methyl-d3)-2,2-dioxido-1,3-dihydrobenzo[c]isothiazol-5-yl)amino)-1H-pyrazol-5-yl)cyclopentyl((S)-sec-butyl)carbamate]
CDK2/Cyclin E1
  IC50: 12 nM
CDK1/Cyclin B1
  IC50: 196 nM

## Cc1c(Nc2cc([C@@H]3CC[C@H](OC(=O)NC(C)C)C3)[nH]n2)ccc2c1CS(=O)(=O)N2C (relative stereo) [Example 243, cis-3-(3-((1,4-dimethyl-2,2-dioxido-1,3-dihydrobenzo[c]isothiazol-5-yl)amino)-1H-pyrazol-5-yl)cyclopentyl isopropylcarbamate]
CDK2/Cyclin E1
  IC50: 37 nM
CDK1/Cyclin B1
  IC50: 978 nM

## CC(C)NC(=O)O[C@@H]1CC[C@H](c2cc(Nc3ccc4c(c3)CS(=O)(=O)N4C)n[nH]2)C1 (single isomer, unassigned) [Example 220a]
CDK2/Cyclin E1
  IC50: 2.6 nM
CDK1/Cyclin B1
  IC50: 56 nM

## CC(C)NC(=O)O[C@H]1CC[C@@H](c2cc(Nc3ccc4c(c3F)CN(C3COC3)S4(=O)=O)n[nH]2)C1 (single isomer, unassigned) [Example 133b, cis-3-(3-((4-fluoro-2-(oxetan-3-yl)-1,1-dioxido-2,3-dihydrobenzo[d]isothiazol-5-yl)amino)-1H-pyrazol-5-yl)cyclopentyl isopropylcarbamate]
CDK2/Cyclin E1
  IC50: 8.6 nM
CDK1/Cyclin B1
  IC50: 456 nM

## CC(C)NC(=O)O[C@H]1CC[C@@H](c2cc(Nc3ccc4c(c3F)CN(C3CCN(Cc5ccccc5)C3)S4(=O)=O)n[nH]2)C1 (relative stereo) [Example 87, cis-3-(3-((2-(1-benzylpyrrolidin-3-yl)-4-fluoro-1,1-dioxido-2,3-dihydrobenzo[d]isothiazol-5-yl)amino)-1H-pyrazol-5-yl)cyclopentyl isopropylcarbamate]
CDK2/Cyclin E1
  IC50: 29 nM
CDK1/Cyclin B1
  IC50: 1090 nM

## CC(C)NC(=O)O[C@H]1CC[C@@H](c2cc(Nc3ccc4c(c3F)CS(=O)(=O)N4)n[nH]2)C1 (racemic) [Example 251, cis-3-(3-((4-fluoro-2,2-dioxido-1,3-dihydrobenzo[c]isothiazol-5-yl)amino)-1H-pyrazol-5-yl)cyclopentyl isopropylcarbamate]
CDK2/Cyclin E1
  IC50: 0.4 nM
CDK1/Cyclin B1
  IC50: 25 nM

## Cc1cc2c(cc1Nc1cc([C@@H]3CC[C@H](OC(=O)NC(C)C)C3)[nH]n1)S(=O)(=O)NC2 (relative stereo) [Example 185, cis-3-(3-((5-methyl-1,1-dioxido-2,3-dihydrobenzo[d]isothiazol-6-yl)amino)-1H-pyrazol-5-yl)cyclopentyl isopropylcarbamate]
CDK2/Cyclin E1
  IC50: 239 nM
CDK1/Cyclin B1
  IC50: 1420 nM

## CC1(NC(=O)O[C@H]2CC[C@@H](c3cc(Nc4cc5c(cc4F)N(CCO)S(=O)(=O)C5)n[nH]3)C2)CC1 (relative stereo) [Example 299, cis-3-(3-((6-fluoro-1-(2-hydroxyethyl)-2,2-dioxido-1,3-dihydrobenzo[c]isothiazol-5-yl)amino)-1H-pyrazol-5-yl)cyclopentyl(1-methylcyclopropyl)carbamate]
CDK2/Cyclin E1
  IC50: 9 nM
CDK1/Cyclin B1
  IC50: 239 nM

## O=C(NC1(CO)CCC1)O[C@H]1CC[C@@H](c2cc(Nc3ccc4c(c3F)CS(=O)(=O)N4)n[nH]2)C1 (relative stereo) [Example 418, cis-3-(3-((4-fluoro-2,2-dioxido-1,3-dihydrobenzo[c]isothiazol-5-yl)amino)-1H-pyrazol-5-yl)cyclopentyl(1-(hydroxymethyl)cyclobutyl)carbamate]
CDK2/Cyclin E1
  IC50: 2 nM
CDK1/Cyclin B1
  IC50: 32 nM

## CC(C)CNC(=O)O[C@H]1CC[C@@H](c2cc(Nc3cc4c(cc3F)N(CCO)S(=O)(=O)C4)n[nH]2)C1 (relative stereo) [Example 298, cis-3-(3-((6-fluoro-1-(2-hydroxyethyl)-2,2-dioxido-1,3-dihydrobenzo[c]isothiazol-5-yl)amino)-1H-pyrazol-5-yl)cyclopentyl isobutylcarbamate]
CDK2/Cyclin E1
  IC50: 4.7 nM
CDK1/Cyclin B1
  IC50: 166 nM

## CC1(NC(=O)O[C@H]2CC[C@@H](c3cc(Nc4ccc5c(c4F)CN(C4CC4)S5(=O)=O)n[nH]3)C2)CC1 (single isomer, unassigned) [Example 119b, cis-3-(3-((2-cyclopropyl-4-fluoro-1,1-dioxido-2,3-dihydrobenzo[d]isothiazol-5-yl)amino)-1H-pyrazol-5-yl)cyclopentyl(1-methylcyclopropyl)carbamate]
CDK2/Cyclin E1
  IC50: 1.9 nM
CDK1/Cyclin B1
  IC50: 114 nM

## CC(C)NC(=O)O[C@H]1CC[C@@H](c2cc(Nc3cc4c(cc3OC(F)(F)F)S(=O)(=O)NC4)n[nH]2)C1 (relative stereo) [Example 28, cis-3-(3-((1,1-dioxido-6-(trifluoromethoxy)-2,3-dihydrobenzo[d]isothiazol-5-yl)amino)-1H-pyrazol-5-yl)cyclopentyl isopropylcarbamate]
CDK2/Cyclin E1
  IC50: 1260 nM
CDK1/Cyclin B1
  IC50: > 10000 nM

## O=C(NCCC(F)(F)F)O[C@H]1CC[C@@H](c2cc(Nc3cc4c(cc3F)S(=O)(=O)NC4)n[nH]2)C1 (single isomer, unassigned) [Example 419b]
CDK2/Cyclin E1
  IC50: 1.8 nM
CDK1/Cyclin B1
  IC50: 78 nM

## CC(C)NC(=O)O[C@@H]1CC[C@H](c2cc(Nc3ccc4c(c3)S(=O)(=O)CN4C(=O)OC(C)(C)C)n[nH]2)C1 (relative stereo) [Example 318, cis-tert-butyl 6-((5-(3-((isopropylcarbamoyl)oxy)cyclopentyl)-1H-pyrazol-3-yl)amino)benzo[d]thiazole-3 (2H)-carboxylate 1,1-dioxide]
CDK2/Cyclin E1
  IC50: 257 nM
CDK1/Cyclin B1
  IC50: 1750 nM

## CC[C@H](C)NC(=O)O[C@H]1CC[C@@H](c2cc(Nc3cc4c(cc3F)S(=O)(=O)NC4)n[nH]2)C1 (relative stereo) [Example 43, cis-3-(3-((6-fluoro-1,1-dioxido-2,3-dihydrobenzo[d]isothiazol-5-yl)amino)-1H-pyrazol-5-yl)cyclopentyl((S)-sec-butyl)carbamate]
CDK2/Cyclin E1
  IC50: 1.1 nM
CDK1/Cyclin B1
  IC50: 130 nM

## CC[C@H](C)NC(=O)O[C@H]1CC[C@@H](c2cc(Nc3ccc4c(c3F)C(C)NS4(=O)=O)n[nH]2)C1 (single isomer, unassigned) [Example 54c]
CDK2/Cyclin E1
  IC50: 0.3 nM
CDK1/Cyclin B1
  IC50: 40 nM

## O=C(O[C@H]1CC[C@@H](c2cc(Nc3ccc4c(c3)CS(=O)(=O)N4)n[nH]2)C1)N1CCOCC1 (relative stereo) [Example 382, cis-3-(3-((2,2-dioxido-1,3-dihydrobenzo[c]isothiazol-5-yl)amino)-1H-pyrazol-5-yl)cyclopentyl morpholine-4-carboxylate]
CDK2/Cyclin E1
  IC50: 9.7 nM
CDK1/Cyclin B1
  IC50: 214 nM

## CCCNC(=O)O[C@H]1CC[C@@H](c2cc(Nc3ccc4c(c3F)CS(=O)(=O)N4C)n[nH]2)C1 (single isomer, unassigned) [Example 256b, cis-3-(3-((4-fluoro-1-methyl-2,2-dioxido-1,3-dihydrobenzo[c]isothiazol-5-yl)amino)-1H-pyrazol-5-yl)cyclopentyl propylcarbamate]
CDK2/Cyclin E1
  IC50: 4 nM
CDK1/Cyclin B1
  IC50: 130 nM

## CC(C)NC(=O)O[C@H]1CC[C@@H](c2cc(Nc3ccc4c(c3F)CN(C)S4(=O)=O)n[nH]2)C1 (single isomer, unassigned) [Example 121b, cis-3-(3-((4-fluoro-2-methyl-1,1-dioxido-2,3-dihydrobenzo[d]isothiazol-5-yl)amino)-1H-pyrazol-5-yl)cyclopentyl isopropylcarbamate]
CDK2/Cyclin E1
  IC50: 3.3 nM
CDK1/Cyclin B1
  IC50: 130 nM
